Source: patent US20200339544A1 (JOINT STOCK COMPANY "BIOCAD", priority 2017, published 2020)
Read-outs that look alike come from different tables or passages of the source. Marks after values point to notes of the source that are not given here.

Columns and labels:
[1] = Chemical stability in simulated intestinal fluid (SIF); assay type: physicochemical; conditions: SIF without enzymes, pH 6.5; 10 μm; 2 hours at 37° C.; substance amount remaining
In short: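 Compound at 10 μm (diluted from 10 mM DMSO stock) incubated 2 h at 37° C in enzyme-free SGF, pH=1,4, or enzyme-free SIF, pH=6.5. HPLC peak areas before and after incubation give % compound remaining.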

[2] = Chemical stability in human blood plasma; assay type: in vitro ADME; conditions: pooled human blood plasma; 10 μm; 4 hours at 37° C.; substance amount remaining
In short: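 Percent of parent remaining was derived by comparing HPLC peak areas at time zero and after 4 h at 37 °C. Test compound was at 10 μM in human plasma pooled from ten donors, and proteins were precipitated with acetonitrile before analysis.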

[3] = Permeability through monolayer of Caco-2 cells; assay type: in vitro ADME; conditions: human, Caco-2 monolayer; for Papp A→B at 2 h, 10 µM: pH 6.5 upper / pH 7.4 lower, 2 h at 37° C.; for efflux ratio at 2 h, 10 µM: Papp B-A/Papp A-B
Description: 2) Assessment of permeability through monolayer of Caco-2 cells.
Assessment of permeability through the monolayer of Caco-2 cells allows to evaluate the ability of the candidate compounds to penetrate through biological membranes by active and passive transport.
Caco-2, the cells of the intestinal epithelium, had been cultured in transwell plate inserts with the filters (with pores of 0.4 μm, BD Falcon with High Density) for 21 days, and then the integrity of the monolayer were estimated with Lucifer Yellow (Sigma-Aldrich, USA) by standard protocol. When setting the A→B transfer (“intestinal lumen”—“blood stream” transfer), solutions of test substances were added in a buffer with pH 6.5 (HBSS, 10 mM HEPES, 15 mM glucose solution) with the concentration of 10 μM into the upper chamber; the lower chamber was filled with a buffer with pH 7.4 (HBSS, 10 mM HEPES, 15 mM Glucose, 1% BSA). When setting B→A transfer (“blood stream”—“intestinal lumen” transfer), the upper chamber was filled with the buffer with pH 6.5, and solutions of the test substances were added in the buffer with pH 7.4 at the concentration of 10 μM in the lower chamber. Propranolol was used as a control substance (as it has high permeability).
After incubating for 2 h at 37° C. under 5% CO2, the amounts of test substances were determined in the upper and lower chambers by HPLC using Agilent1200 chromatograph (Agilent, USA) with preliminary protein precipitation with acetonitrile. We used gradient elution (1 mL/min flow rate). We determined the areas of peaks corresponding to the compounds. On the basis of peak areas in the calibration standards we determined the concentration of compound in the initial solution and in the samples from the wells of the upper and lower chambers. Papp, permeability through the cell layer, was calculated using the following formula:
Papp=(C(t)*V)/(C(0)*t*Area), wherein
The value was calculated with the following formula:
efflux=Papp B-A/Papp A-B, wherein • Papp A-B—the volume of permeability in A→B test; • Papp B-A—he volume of permeability in B→A test.

[4] = tested on: H1975 (lung adenocarcinoma, DM, L828R/T790M); experiment: Antiproliferative activity on H1975 cells (Alamar Blue); assay type: cell-based; conditions: for IC50: Homo sapiens, NCI-H1975, H1975 cells; for SI IC50(A549)/IC50(DM): selectivity index, A549 vs H1975 cells
In short: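 IC50 was fitted with a four-parameter logistic model to Alamar Blue fluorescence (540/590 nm), read 3-5 h after dye addition. Before that, compounds acted on attached H1975 cells, 15*10^3 per well in 2% FBS RPMI-1640, for 72 h at 37 °C, DMSO no more than 1%.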

[5] = average values obtained in several tests, Table 16, read-out: H1975 (DM) IC50
[6] = antiproliferative test, Table 15, read-out: IC50 H1975 (DM)

Row | Stability in SIF, % [1] | Stability in blood plasma, % [2] | Papp A→B at 2 h, 10 µM [3] | efflux ratio at 2 h, 10 µM [3] | IC50 [4, 5] | IC50 [4, 6] | SMILES | SI IC50(A549)/IC50(DM) [4]
1 | 100.0% | 94.2% | 2.88 ×10⁻⁶ cm/s | 0.58 | 0.211 µM | 0.211 µM | C=CC(=O)Nc1cc(Nc2nccc(C(=O)c3ccc(F)cc3)n2)c(OC)cc1N(C)CCN(C)C [EGFR_3365_10, N-(2-((2-(dimethylamino)ethyl)(methyl)amino)-5-((4-(4-fluorobenzoyl)pyrimidin-2-yl)amino)-4-methoxyphenyl) acrylamide] | 62.70
2 | 98.6% | 90.0% | 2.5 ×10⁻⁶ cm/s | 0.4 | 0.203 µM | 0.203 µM | C=CC(=O)Nc1cc(Nc2nccc(C(=O)c3ccc(OCCC)cc3OCCC)n2)c(OC)cc1N(C)CCN(C)C [EGFR_3365_70, N-(2-((2-(dimethylamino)ethyl)(methyl)amino)-5-((4-(2,4-dipropoxybenzoyl)pyrimidin-2-yl)amino)-4-methoxyphenyl)acrylamide] | 22
3 | 91.5% | 94.6% | 3.5 ×10⁻⁶ cm/s | 1.5 | 0.0115 µM | 0.0115 µM | C=CC(=O)Nc1cc(Nc2nccc(C(=O)c3ccc(N(CC)CC)cc3)n2)c(OC)cc1N(C)CCN(C)C [EGFR_3365_72, N-(5-((4-(4-(diethylamino)benzoyl)pyrimidin-2-yl)amino)-2-((2-(dimethylamino)ethyl)(methyl)amino)-4-methoxyphenyl)acrylamide] | 932
4 | 100.0% | 90.5% | 5.1 ×10⁻⁶ cm/s | 1.6 | 0.0095 µM | 0.0103 µM | C=CC(=O)Nc1cc(Nc2nccc(C(=O)c3ccc(N(C)C)cc3)n2)c(OC)cc1N(C)CCN(C)C [EGFR_3365_73, N-(5-((4-(4-(dimethylamino)benzoyl)pyrimidin-2-yl)amino)-2-((2-(dimethylamino)ethyl) (methyl)amino)-4-methoxyphenyl)acrylamide] | 1678
5 | 100.0% | 90.3% | 5.28 ×10⁻⁶ cm/s | 1.29 | 0.0601 µM | 0.0601 µM | C=CC(=O)Nc1cc(Nc2nccc(C(=O)c3ccccc3C(F)(F)F)n2)c(OC)cc1N(C)CCN(C)C [EGFR_3365, N-(2-((2-(dimethylamino)ethyl) (methyl)amino)-4-methoxy-5-((4-(2-(trifluoromethyl)benzoyl)pyrimidin-2-yl)amino)phenyl)acrylamide] | >166**
6 | 100.0% | 86.2% | 3.84 ×10⁻⁶ cm/s | 1.87 | 0.0171 µM | 0.0171 µM | C=CC(=O)Nc1cc(Nc2nccc(C(=O)c3ccc(OC)cc3)n2)c(OC)cc1N(C)CCN(C)C [EGFR_3365_28, N-(2-((2-(dimethylamino)ethyl)(methyl)amino)-4-methoxy-5-((4-(4-methoxybenzoyl)pyrimidin-2-yl)amino)phenyl)acrylamide] | 213.04
7 | 100.0% | 99.7% | 5.8 ×10⁻⁶ cm/s | 1.1 | 0.0081 µM | 0.0105 µM | C=CC(=O)Nc1cc(Nc2nccc(C(=O)c3ccc(N4CCC4)cc3)n2)c(OC)cc1N(C)CCN(C)C [EGFR_3365_58, N-(5-((4-(4-(azetidin-1-yl)benzoyl)pyrimidin-2-yl)amino)-2-((2-(dimethylamino)ethyl)(methyl)amino)-4-methoxyphenyl)acrylamide] | >1235
8 | 100.0% | 79.7% | 4.26 ×10⁻⁶ cm/s | 1.5 | 0.0269 µM | 0.0269 µM | C=CC(=O)Nc1cc(Nc2nccc(C(=O)c3ccc(OCC)cc3)n2)c(OC)cc1N(C)CCN(C)C [EGFR_3365_29, N-(2-((2-(dimethylamino)ethyl)(methyl)amino)-5-((4-(4-ethoxybenzoyl)pyrimidin-2-yl)amino)-4-methoxyphenyl) acrylamide] | 595.06
9 | 96.4% | 83.2% | 1.8 ×10⁻⁶ cm/s | 1.7 | 0.0292 µM | 0.0292 µM | C=CC(=O)Nc1cc(Nc2cc(C(=O)c3ccc(N4CCCC4)cc3)ccn2)c(OC)cc1N(C)CCN(C)C [EGFR_3365_56, N-(2-((2-(dimethylamino)ethyl)(methyl)amino)-4-methoxy-5-((4-(4-(pyrrolidin-1-yl)benzoyl)pyridin-2-yl)amino)phenyl)acrylamide] | 156
10 | 100.0% | 76.3% | 1.94 ×10⁻⁶ cm/s | 0.98 | 0.0215 µM | 0.0215 µM | C=CC(=O)Nc1cc(Nc2nccc(C(=O)c3ccccc3Br)n2)c(OC)cc1N(C)CCN(C)C [EGFR_3365_12, N-(5-((4-(2-bromobenzoyl)pyrimidin-2-yl)amino)-2-((2-(dimethylamino)ethyl) (methyl)amino)-4-methoxyphenyl)acrylamide] | 716.20
11 | 97.2% | 93.1% | 3.7 ×10⁻⁶ cm/s | 1.1 | 0.00734 µM | 0.0073 µM | C=CC(=O)Nc1cc(Nc2nccc(C(=O)c3ccc(OC(C)C)cc3)n2)c(OC)cc1N(C)CCN(C)C [EGFR_3365_31, N-(2-((2-(dimethylamino)ethyl)(methyl)amino)-5-((4-(4-isopropoxybenzoyl)pyrimidin-2-yl)amino)-4-methoxyphenyl) acrylamide] | 1509.19
12 | 92.9% | – | 4.36 ×10⁻⁶ cm/s | 0.5 | 0.0164 µM | 0.0164 µM | C=CC(=O)Nc1cc(Nc2nccc(C(=O)c3ccc(OCCC)cc3)n2)c(OC)cc1N(C)CCN(C)C [EGFR_3365_30, N-(2-((2-(dimethylamino)ethyl)(methyl)amino)-4-methoxy-5-((4-(4-propoxybenzoyl)pyrimidin-2-yl)amino)phenyl)acrylamide] | 337.72
13 | 98.8% | 91.8% | 5.5 ×10⁻⁶ cm/s | 1.8 | 0.0081 µM | 0.00812 µM | C=CC(=O)Nc1cc(Nc2nccc(C(=O)c3ccc(N4CC(OC)C4)cc3)n2)c(OC)cc1N(C)CCN(C)C [EGFR_3365_61, N-(2-((2-(dimethylamino)ethyl)(methyl)amino)-4-methoxy-5-((4-(4-(3-methoxyazetidin-1-yl)benzoyl)pyrimidin-2-yl)amino)phenyl)acrylamide] | 2884

Row | SMILES | Stability in SIF, % [1] | Stability in blood plasma, % [2] | Papp A→B at 2 h, 10 µM [3] | efflux ratio at 2 h, 10 µM [3] | IC50 [4, 5] | IC50 [4, 6] | SI IC50(A549)/IC50(DM) [4]
14 | C=CC(=O)Nc1cc(Nc2nccc(C(=O)c3ccc(OCCCC)cc3)n2)c(OC)cc1N(C)CCN(C)C [EGFR_3365_66, N-(5-((4-(4-butoxybenzoyl)pyrimidin-2-yl)amino)-2-((2-(dimethylamino)ethyl)(methyl)amino)-4-methoxyphenyl)acrylamide] | 96.5% | 97.0% | 1.3 ×10⁻⁶ cm/s | 0.4 | 0.0347 µM | 0.0347 µM | 134
